# Laboratory results from patent US7544814B2, “[3.2.0] Heterocyclic compounds and methods of using the same” (Nereus Pharmaceuticals, Inc., priority 2004, dated 2009).
# Values joined by “and” are separate entries in the source; they are usually repeats but may differ in a detail not shown here. Equal entries are not always repeated. Where two headings read alike, the source gives them in different places.
# Legend:
# [1] = target: T1, trypsin-like activity of purified rabbit muscle 20S proteasome (Oryctolagus cuniculus, UniProt G1SWK8); assay: In vitro inhibition of 20S proteasome trypsin-like activity (Boc-LRR-AMC); conditions: under the conditions tested
# T1 sequence (G1SWK8 1-271): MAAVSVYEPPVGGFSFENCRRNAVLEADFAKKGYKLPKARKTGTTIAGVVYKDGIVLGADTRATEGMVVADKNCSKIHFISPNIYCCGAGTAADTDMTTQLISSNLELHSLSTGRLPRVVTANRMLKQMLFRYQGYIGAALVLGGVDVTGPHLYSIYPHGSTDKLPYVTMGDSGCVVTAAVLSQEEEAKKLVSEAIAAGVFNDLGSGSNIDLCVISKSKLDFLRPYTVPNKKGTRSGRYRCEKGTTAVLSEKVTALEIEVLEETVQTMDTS
# [2] = target: T1, trypsin-like activity of purified rabbit muscle 20S proteasome; assay: biochemical
# [3] = tested on: U266; assay: Cell growth inhibition (resazurin), U266; conditions: for EC50: 48 hours drug exposure; for cytotoxicity against U266, in words: from EC50 values
# [4] = target: T2, chymotrypsin-like activity of purified rabbit muscle 20S proteasome (Oryctolagus cuniculus, UniProt G1T4Q9); assay: In vitro inhibition of 20S proteasome chymotrypsin-like activity (suc-LLVY-AMC)
# T2 sequence (G1T4Q9 1-263): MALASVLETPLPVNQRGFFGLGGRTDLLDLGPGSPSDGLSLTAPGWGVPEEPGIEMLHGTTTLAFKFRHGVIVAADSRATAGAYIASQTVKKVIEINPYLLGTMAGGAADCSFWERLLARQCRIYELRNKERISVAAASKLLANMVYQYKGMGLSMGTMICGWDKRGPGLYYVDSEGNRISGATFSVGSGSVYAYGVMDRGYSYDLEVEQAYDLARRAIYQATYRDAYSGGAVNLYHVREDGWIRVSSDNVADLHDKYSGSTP
# [5] = target: T3, caspase-like activity of purified rabbit muscle 20S proteasome (Oryctolagus cuniculus, UniProt A0A5F9DQW2); assay: In vitro inhibition of 20S proteasome caspase-like activity (Z-LLE-AMC)
# T3 sequence (A0A5F9DQW2 1-212): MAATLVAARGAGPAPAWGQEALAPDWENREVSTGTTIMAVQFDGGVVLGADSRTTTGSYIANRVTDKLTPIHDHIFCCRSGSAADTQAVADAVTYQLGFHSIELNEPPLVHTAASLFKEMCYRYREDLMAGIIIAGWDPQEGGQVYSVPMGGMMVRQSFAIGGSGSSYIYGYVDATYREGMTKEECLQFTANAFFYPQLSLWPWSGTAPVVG
# [6] = tested on: RPMI 8226; assay: Cell growth inhibition (resazurin), RPMI 8226; conditions: for EC50: 48 hours drug exposure, mean ± SD where n≥3; for cytotoxicity against RPMI 8226, in words: from EC50 values
# [7] = tested on: NF-κB; assay: NF-κB-mediated luciferase reporter gene assay, HEK293 NF-κB/Luc cells, TNF-α stimulation; format: cell-based, human; conditions: for EC50: 1 hr pretreatment, TNF-α 6 hr; for effect on luciferase activity upon TNF-α stimulation, in words: pretreatment of NF-κB/Luc 293 cells
# Method: The HEK293 NF-κB/luciferase reporter cell line is a derivative of the human embryonic kidney cell line (ATCC; CRL-1573) and carries a luciferase reporter gene under the regulation of 5× NF-κB binding sites. […] When performing the luciferase assay, the DMEM basal medium was replaced with phenol-red free DMEM basal medium and the G418 was omitted.
# For NF-κB-mediated luciferase assays, HEK293 NF-κB/luciferase cells were seeded at 1.5×10^4 cells/well in 90 μl phenol-red free DMEM complete medium into Corning 3917 white opaque-bottom tissue culture plates. For Formula II-2, Formula II-4, Formula II-5A, and Formula II-18, a 400 μM starting dilution was made in 100% DMSO and this dilution was used to generate a 8-point half log dilution series. […] For Formula II-20, a 2.5 mM or 8 mM starting solution was made in 100% DMSO and the final test concentrations ranged from 6.3 μM to 2.0 nM or 20 μM to 6.3 nM, respectively. The plates were returned to the incubator for 1 hour. After 1 hr pretreatment, 10 μl of a 50 ng/ml TNF-α solution, prepared in the phenol-red free DMEM medium was added, and the plates were incubated for an additional 6 hr.
# At the end of the TNF-α stimulation, 100 μl of Steady Lite HTS luciferase reagent (Packard Bioscience) was added to each well and the plates were left undisturbed for 10 min at room temperature before measuring the luciferase activity. The relative luciferase units (RLU) were measured by using a Fusion microplate fluorometer (Packard Bioscience).
# [8] = Homo sapiens, U-266, 48 h, read-out: U266 EC50, Table 2
# [9] = EC50 Chymotrypsin-like, Table 6, values in nM
# [10] = EC50 values, chymotrypsin-like activity, summary of Table 6
# [11] = EC50 Caspase-like, Table 6, values in μM
# [12] = EC50 values, caspase-like activity, range in mixed units, summary of Table 6, range from nM to μM
# [13] = Homo sapiens, RPMI-8226, 48 h, read-out: RPMI 8226 EC50, Table 2
# [14] = read-out: RPMI 8226 EC50, Table 2
# [15] = Homo sapiens, HEK293, read-out: EC50, NF-κB-mediated luciferase reporter gene assay, Table 5, values in μM
# [16] = Homo sapiens, HEK293, read-out: EC50, NF-κB-mediated luciferase reporter gene assay, Table 5, values in nM
# [17] = Homo sapiens, HEK293, Table 5, values printed in μM, read-out: EC50, NF-κB-mediated luciferase reporter gene assay
# [18] = EC50 Chymotrypsin-like, Table 6, values in μM
# [19] = EC50 values, chymotrypsin-like activity, range or bound stated in text, summary of Table 6
SMILES,"inhibition of the trypsin-like activity of the 20S proteasome, in words [1]",EC50 [2],"EC50 [4, 9]","EC50 [4, 10]","EC50 [5, 11]","EC50 [6, 13]","cytotoxicity against RPMI 8226, in words [6]","EC50 [6, 14]",other results
CCC[C@H]1C(=O)N[C@@]2([C@@H](O)[C@@H]3C=CCCC3)C(=O)O[C@@]12C [Formula II-30],able to inhibit,905 nM and 1200 nM,21 nM,13 to 88 nM,1300 nM,4900 nM,cytotoxic,4160 nM,"EC50 [3, 8]: 889 nM; cytotoxicity against U266, in words [3]: cytotoxic; EC50 ([3]; read-out: U266 EC50, Table 2): 1240 nM; EC50 ([5]; EC50 Caspase-like, Table 6, values in nM): 956 nM; EC50 [5, 12]: 956 to 8700 nM; EC50 [7, 15]: 2.2 µM; effect on luciferase activity upon TNF-α stimulation, in words [7]: dose-dependent decrease"
COC(=O)C(CSC(=O)[C@]1([C@@H](O)[C@@H]2C=CCCC2)NC(=O)[C@H](CCCl)[C@]1(C)O)NC(C)=O (stereo partly drawn) [Formula II-50],,,,,,10 nM,cytotoxic,,
CCC(=O)OCC[C@H]1C(=O)N[C@@]2([C@@H](O)[C@@H]3C=CCCC3)C(=O)O[C@@]12C [Formula II-22],able to inhibit,289 nM,7 nM and 3 nM,2 to 11 nM,1300 nM and 1400 nM,9720 nM,cytotoxic,11200 nM,"cytotoxicity against U266, in words [3]: cytotoxic; EC50 [5, 12]: 956 to 8700 nM; EC50 [7, 16]: 0.728 µM; EC50 [7, 15]: 1 µM; effect on luciferase activity upon TNF-α stimulation, in words [7]: dose-dependent decrease"
C[C@@]12OC(=O)[C@]1([C@@H](O)[C@@H]1C=CCCC1)NC(=O)[C@H]2CCCl [Formula II-26],able to inhibit,,,,,2230 nM,cytotoxic,1610 nM,"cytotoxicity against U266, in words [3]: cytotoxic; EC50 ([3]; read-out: U266 EC50, Table 2): 829 nM; EC50 [7, 17]: 4.3 µM; EC50 ([7]; Table 5, values in μM, read-out: EC50, NF-κB-mediated luciferase reporter gene assay): 4.1 µM; effect on luciferase activity upon TNF-α stimulation, in words [7]: dose-dependent decrease"
CC12OC(=O)C1(CC1C=CCCC1)NC(=O)C2CCCl (stereo not drawn) [Formula I-7],,,52 ± 2 nM,13 to 88 nM,,240 nM,cytotoxic,250 nM,
C[C@@H]1C(=O)N[C@@]2([C@@H](O)[C@@H]3C=CCCC3)C(=O)O[C@@]12C [Formula II-28],,> 20000 nM,,,> 20000 nM,> 20000 nM,,,"EC50 [3, 8]: > 20000 nM; EC50 [4, 18]: 3200 nM and 3300 nM; EC50 [4, 19]: 1400 to 10600 nM; EC50 [7, 15]: > 20 µM"
CC12OC(=O)C1(C(=O)C1C=CCCC1)NC(=O)C2CCCl (stereo not drawn) [Formula II-13C],able to inhibit,8600 nM and 12800 nM,,,> 20000 nM,,,,"EC50 [4, 18]: 7600 nM and 8800 nM; EC50 [4, 19]: 1400 to 10600 nM"
CC[C@@H]1C(=O)N[C@@]2([C@@H](O)[C@@H]3C=CCCC3)C(=O)O[C@@]12C [Formula II-27],,> 20000 nM,,,,,,,"EC50 [7, 17]: > 20 µM"
C[C@@]12OC(=O)[C@]1(C(=O)C1=CC(O)CCC1)NC(=O)[C@]2(C)CCCl (stereo partly drawn) [Formula II-32],,,,,,,,> 20000 nM,
C[C@@]12OC(=O)[C@]1([C@@H](O)[C@@H]1C=CCCC1)NC(=O)[C@@H]2CCN=C=S [Formula II-38],,,3.4 ± 0.2 nM,2 to 11 nM,,2600 nM,cytotoxic,1800 nM,
COC(=O)CCSC(=O)[C@]1([C@@H](O)[C@@H]2C=CCCC2)NC(=O)[C@H](CCCl)[C@]1(C)O [Formula II-44],able to inhibit,55 nM and 54 nM,11 nM and 8.7 nM,2 to 11 nM,1400 nM,12 nM,cytotoxic,8.8 nM,"EC50 [5, 12]: 956 to 8700 nM; EC50 [7, 16]: 0.017 ± 0.004 µM; effect on luciferase activity upon TNF-α stimulation, in words [7]: dose-dependent decrease"
COC(=O)CCSC(=O)C1(C(O)C2C=CCCC2)NC(=O)C2CCOC21C (stereo not drawn) [Formula VI-1A],able to inhibit,3100 nM and 3000 nM,274 nM and 207 nM,207 to 964 nM,7900 nM and 8700 nM,8400 nM,cytotoxic,7800 nM,"EC50 [5, 12]: 956 to 8700 nM; EC50 [7, 15]: > 20 µM"
C[C@@]12OC(=O)[C@]1(C(=O)C1=CC(O)CCC1)NC(=O)[C@]2(C)CCCl (stereo partly drawn) [Formula II-31],,,,,,> 20000 nM,,,
CC[C@H]1C(=O)N[C@](C(=O)SCCC(=O)OC)([C@@H](O)[C@@H]2C=CCCC2)[C@@]1(C)O [Formula II-47],,,50 ± 10 nM,13 to 88 nM,,8000 ± 3400 nM,cytotoxic,,
"C[C@@]12OC(=O)[C@]1(C(O)[C@@H]1C=CCCC1)NC(=O)[C@@H]2CCCl (single isomer, unassigned) [Formula II-25]",,,,,,> 20000 nM,,,"EC50 [3, 8]: > 20000 nM; EC50 [7, 17]: > 20 µM"
